Reference: US8053458B2, “Dipyrazole compounds and their use as central nervous system agents” (Aventis Pharmaceuticals Inc., priority 2005, dated 2011)
Marks after values point to notes of the source that are not given here.

Tests used:
AMPA receptors = assay: Voltage whole-cell recording: inhibition of KA-induced rundown of AMPA current in acutely dissociated prefrontal cortical neurons; format: cell-based, rats; details: KA 200 μM; rat PFC neurons; whole-cell voltage clamp, held at −60 mV; 0.1 μM was the lowest concentration tested
Description: (§1) Prefrontal cortical (PFC) neurons from young adult (3-5 weeks postnatal) rats are acutely dissociated using procedures similar to those described previously (Feng, et al., J Neurosci, 2001; Chen, et al., Proc Natl Acad Sci USA, 2004). After incubation of brain slices in a NaHCO3-buffered saline, PFC is dissected and placed in an oxygenated chamber containing papain (Sigma, 0.8 mg/ml) in HEPES-buffered Hank's balanced salt solution (HBSS, Sigma) at room temperature. After 40 minutes of enzyme digestion, tissue is rinsed three times in the low Ca^+2, HEPES-buffered saline and mechanically dissociated with a graded series of fire-polished Pasteur pipettes. The cell suspension is then plated into a 35 mm Lux Petri dish, which is then placed on the stage of a Nikon inverted microscope.
(§2) Whole-cell recordings of whole-cell ion channel currents employ standard voltage clamp techniques (Yan et al., Nat Neuroscience, 1999; Wang et al., J Neurosci, 2003; Tyszkiewicz et al., J. Physiol., 2004). The internal solution (inside the patch pipette) consists of (in mM): 180 N-methyl-d-glucamine (NMG), 40 HEPES, 4 MgCl2, 0.1 BAPTA, 12 phosphocreatine, 3 Na2ATP, 0.5 Na2GTP, 0.1 leupeptin, pH=7.2-7.3, 265-270 mosm/L. The external solution consists of (in mM): 127 NaCl, 20 CsCl, 10 HEPES, 1 CaCl2, 5 BaCl2, 12 glucose, 0.001 TTX, 0.02 glycine, pH=7.3-7.4, 300-305 mOsm/L. Recordings are obtained with an Axon Instruments 200B patch clamp amplifier that is controlled and monitored with an IBM PC running pCLAMP (v. 8) with a DigiData 1320 series interface (Axon instruments). Electrode resistances are typically 2-4 MΩ in the bath. After seal rupture to attain whole-cell recording conditions, series resistance (4-10 MΩ) is compensated (70-90%) and periodically monitored. The cell membrane potential is held at −60 mV.
(§3) The application of KA (200 μM) or NMDA (100 μM, in Mg^2+-free solution) evokes a partially desensitizing inward current. KA or NMDA is applied for 2 seconds every 30 seconds to minimize desensitization-induced decrease of current amplitude. Drugs are applied with a gravity-fed ‘sewer pipe’ system. The array of application capillaries (ca. 150 μm i.d.) is positioned a few hundred microns from the cell under study. Solution changes are effected by the SF-77B fast-step solution stimulus delivery device (Warner Instruments). Data are collected with PCLAMP software and analyzed with AXOGRAPH, KALEIDOGRAPH, and STATVIEW.
(§4) Compounds described herein inhibit the KA-induced rundown of AMPA current by either stabilizing the agonist-evoked current of increasing the current. Likewise, compounds described herein increase the NMDA-evoked current. The minimum effective dose (MED) was identified by determining the lowest concentration of inhibitor that was effective in each functional assay.

NMDA receptors = assay: Voltage whole-cell recording: increase of NMDA-evoked current in acutely dissociated prefrontal cortical neurons; format: cell-based, rats; details: rat PFC neurons; for Increase of NMDA-Evoked Current, Minimal Effective Concentration: NMDA 100 μM in Mg2+-free solution, whole-cell voltage clamp; for Average percent increase in NMDA current (10 μM): compound at 10 μM, NMDA 100 μM
Description: as §1, §2, §3, §4

SMILES | Inhibition of KA-Induced Rundown of AMPA Current, Minimal Effective Concentration (AMPA receptors) | Increase of NMDA-Evoked Current, Minimal Effective Concentration (NMDA receptors) | Average percent increase in NMDA current (10 μM) (NMDA receptors)
Cc1cc(-c2c(C)nn(-c3ccccc3F)c2O)[nH]n1 [Example 4, 2′-(2-Fluoro-phenyl)-5,5′-dimethyl-2H,2′H-[3,4′]bipyrazolyl-3′-ol] | 0.1 * μM | – | –
Cc1cc(-c2c(C)nn(-c3ccc(Cl)cc3)c2O)[nH]n1 [Example 5, 2′-(4-Chloro-phenyl)-5,5′-dimethyl-2H,2′H-[3,4′]bipyrazolyl-3′-ol] | 0.1 * μM | – | –
Cc1cc(-c2c(C)nn(-c3ccc(C(F)(F)F)cc3)c2O)[nH]n1 [Example 8, 5,5′-Dimethyl-2′-(4-trifluoromethyl-phenyl)-2H,2′H-[3,4′]bipyrazolyl-3′-ol] | – | 1 µM | 303%
Cc1cccc(-n2nc(C)c(-c3cc(C)n[nH]3)c2O)c1 [Example 15, 5,5′-Dimethyl-2′-(3-methyl-phenyl)-2H,2′H-[3,4′]bipyrazolyl-3′-ol] | 1.0 µM | – | –
Cc1cc(-c2c(C)nn(-c3cccc(Cl)c3)c2O)[nH]n1 [Example 18, 5,5′-Dimethyl-2′-(3-chlorophenyl)-2H,2′H-[3,4′]bipyrazolyl-3′-ol] | 1.0 µM | 5 µM | 55%
Cc1cc(-c2c(C)nn(-c3ccccc3)c2O)[nH]n1 [Example 25, 5,5′-Dimethyl-2′-phenyl-2H,2′H-[3,4′]bipyrazolyl-3′-ol] | 1.0 µM | – | –
